Earlier results in PMC8287861 (Frontiers in Microbiology, 2021).
Like-named read-outs stand apart in the source and are kept apart here.

What was measured:
[1] = tested on: KPC-producing strains of Klebsiella pneumoniae and blaKPC mutants; parameters: method as in Nelson et al., 2019; settings: ref Nelson et al., 2019
[2] = tested on: Pseudomonas aeruginosa; parameters: method as in Lomovskaya et al. (2021); settings: ref Lomovskaya et al. (2021); for MIC50 / MIC90: challenge panel, QPX7728 at 8 μg/ml

CC(C)(O/N=C(\C(=O)N[C@@H]1C(=O)N2C(C(=O)[O-])=C(C[n+]3ccccc3)CS[C@H]12)c1csc(N)n1)C(=O)O [Ceftazidime, ceftazidime]
>128 mg/L: MIC ([1]; KP1074, KPC-3, SHV-11, TEM-1/GD) | MIC ([1]; KP1099, KPC-2, SHV-11, SHV-12, CTX-M-14/GD) | MIC ([1]; KP1102, KPC-3, TEM-1, SHV-11/GD) | MIC ([1]; KP1246, KPC-3, SHV-12, SHV-11/FL) | MIC ([1]; KP1252, KPC-3, TEM-1, SHV-11/FL) | MIC ([1]; KP1317, KPC-3, TEM-1, SHV-11/GD) | MIC ([1]; KP1500, KPC-3, TEM-1, SHV-11, CTX-M-15 OXA-1 OXA-9/IS at −48) | MIC ([1]; KPM3191, KPC-3:: DDK duplication at aa#831 (KPC-29)) | MIC ([1]; KPM3192, KPC-3:: D179Y (KPC-31)) | MIC ([1]; KPM3200, KPC-3::duplication of EAVI (aa#278)) | MIC ([1]; KPM3205, KPC-3 ::duplication of KKDY (aa#273)) | MIC ([1]; KPM3210, KPC-2::D179N) | MIC ([1]; KPM3212, deletion of ELNSAI at aa#497) | MIC ([1]; KPM3213, KPC-2::D179Y (KPC-31), selected from KP1099) | MIC ([1]; KPM3214, KPC-2::D179A) | MIC ([1]; KPM3493, KPC-3::duplication of EL at aa#164 (KPC-25)) | MIC ([1]; KPM3494, KPC-3::R167S) | MIC ([1]; KPM3495, KPC-3::A175V) | MIC ([1]; KPM3511, KPC-3::P174Q) | MIC ([1]; KPM3512, KPC-3:: P174L) | MIC ([1]; KPM3517, KPC-3::D179Y (KPC-31)) | MIC ([1]; KPM3520, Both WT and mutant KPC-3::duplication of 8aa (aa#264–271)) | MIC ([1]; KPM3523, Both WT and mutant KPC-3:: deletion of EL (aa#241–242)) | MIC ([1]; KPM3546, KPC-3::R164H)

CCN1CCN(C(=O)N[C@@H](C(=O)N[C@@H]2C(=O)N3[C@@H]2SC(C)(C)[C@@H]3C(=O)O)c2ccccc2)C(=O)C1=O [Piperacillin, piperacillin]
>64 mg/L: MIC50 ([2]; All (N = 290)) | MIC90 ([2]; All (N = 290)) | MIC50 ([2]; MBL (N = 61)) | MIC90 ([2]; MBL (N = 61)) | MIC50 ([2]; No MBL (N = 229)) | MIC90 ([2]; No MBL (N = 229))
70.3%: % of isolates shifted by QPX7728 at or below breakpoint ([2]; challenge panel (N = 290), with QPX7728, 8 or 16 μg/ml for cefepime and piperacillin, respectively)
